One assay deals with T1, α4β1 (Homo sapiens, UniProt P05556+P13612).
T1 construct: Ramos Cell Adhesion Assay (α4β1 Mediated Adhesion/VCAM-1); endogenous in cells; host or cells: Ramos cells
Kind of assay: Ramos Cell Adhesion Assay (α4β1 Mediated Adhesion/VCAM-1). The assay is classed as cell-based. The note with it: Ramos cell adhesion to hVCAM-1; read-out: α4β1 IC50. The gist of the method: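 Plates coated overnight at 4° C with recombinant hVCAM-1 at 4.0 μg/mL, pH 9.0, then blocked in PBS/1% BSA. Calcein AM-labeled Ramos cells added with compounds and left to adhere 1 h at room temperature; after washing, cells lysed in 1 M Tris pH 8.0/1% SDS.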

The target of another assay is T2, human α4β7 integrin (Homo sapiens, UniProt P13612+P26010).
T2 construct: expressed in transfected cells; host or cells: K562 cells, stably transfected
T2 sequence (P13612 34-1032): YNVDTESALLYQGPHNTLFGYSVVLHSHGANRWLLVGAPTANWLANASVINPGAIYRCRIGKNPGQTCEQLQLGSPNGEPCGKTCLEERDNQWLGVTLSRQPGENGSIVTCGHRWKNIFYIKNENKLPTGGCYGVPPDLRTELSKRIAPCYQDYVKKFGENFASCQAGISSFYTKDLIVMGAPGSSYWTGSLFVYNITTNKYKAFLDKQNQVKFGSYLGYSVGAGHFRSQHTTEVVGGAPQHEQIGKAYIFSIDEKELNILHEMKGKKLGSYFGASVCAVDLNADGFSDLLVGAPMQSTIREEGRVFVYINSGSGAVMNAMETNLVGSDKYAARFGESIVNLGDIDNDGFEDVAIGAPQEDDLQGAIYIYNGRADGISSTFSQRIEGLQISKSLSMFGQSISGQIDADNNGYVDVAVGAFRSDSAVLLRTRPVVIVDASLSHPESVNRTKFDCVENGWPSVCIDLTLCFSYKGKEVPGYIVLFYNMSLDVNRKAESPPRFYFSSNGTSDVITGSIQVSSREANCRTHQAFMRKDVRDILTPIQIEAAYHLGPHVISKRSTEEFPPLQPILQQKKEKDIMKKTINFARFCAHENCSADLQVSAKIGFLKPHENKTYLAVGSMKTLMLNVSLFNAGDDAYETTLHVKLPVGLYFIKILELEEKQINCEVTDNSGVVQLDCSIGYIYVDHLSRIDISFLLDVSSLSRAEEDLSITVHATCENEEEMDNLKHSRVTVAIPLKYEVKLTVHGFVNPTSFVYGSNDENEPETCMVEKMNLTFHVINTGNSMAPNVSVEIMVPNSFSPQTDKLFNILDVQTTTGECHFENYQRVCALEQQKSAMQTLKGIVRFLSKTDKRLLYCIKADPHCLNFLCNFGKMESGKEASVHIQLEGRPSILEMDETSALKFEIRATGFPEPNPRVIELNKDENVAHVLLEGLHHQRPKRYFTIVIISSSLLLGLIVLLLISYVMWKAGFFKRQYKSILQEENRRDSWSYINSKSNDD
T2 sequence (P26010 20-798): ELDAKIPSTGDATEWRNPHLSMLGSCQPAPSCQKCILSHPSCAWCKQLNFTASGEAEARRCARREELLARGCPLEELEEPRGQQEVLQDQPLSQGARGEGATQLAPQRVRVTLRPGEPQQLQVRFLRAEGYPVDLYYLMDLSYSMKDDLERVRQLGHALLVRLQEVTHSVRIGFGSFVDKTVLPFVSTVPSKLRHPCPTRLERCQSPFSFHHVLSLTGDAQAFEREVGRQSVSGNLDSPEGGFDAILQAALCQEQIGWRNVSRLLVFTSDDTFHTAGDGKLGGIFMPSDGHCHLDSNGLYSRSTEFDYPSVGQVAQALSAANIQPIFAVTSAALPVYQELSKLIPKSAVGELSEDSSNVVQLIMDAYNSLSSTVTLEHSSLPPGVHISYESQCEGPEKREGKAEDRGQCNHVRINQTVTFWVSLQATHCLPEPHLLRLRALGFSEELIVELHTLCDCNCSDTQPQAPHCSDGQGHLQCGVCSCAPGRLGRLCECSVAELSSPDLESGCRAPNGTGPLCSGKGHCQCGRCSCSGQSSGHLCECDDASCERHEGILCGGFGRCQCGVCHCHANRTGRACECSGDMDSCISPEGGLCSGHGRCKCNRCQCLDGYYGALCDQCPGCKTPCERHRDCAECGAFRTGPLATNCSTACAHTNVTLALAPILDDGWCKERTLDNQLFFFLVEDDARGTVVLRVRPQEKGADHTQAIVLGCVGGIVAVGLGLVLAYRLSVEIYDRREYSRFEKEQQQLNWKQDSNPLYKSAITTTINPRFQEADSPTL
Kind of assay: α4β7-K562 Cell Adhesion Assay (α4β7 Mediated Adhesion/MAdCAM-1). The assay is classed as cell-based. The note with it: α4β7-K562 cell adhesion to hMAdCAM-1; read-out: α4β7 IC50. The gist of the method: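 Anti-FLAG plates coated 1 h at 4° C with FLAG-hMAdCAM-1 in PBS pH 7.4, 1% BSA, 1 mM Mn2+. Stably transfected K562 cells expressing human α4β7, labelled with CFDA-SE, adhered with compound 1 h at room temperature. After four washes, bound cells lysed in 0.1 M NaOH for fluorescence read-out.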

Bounds are passed on as bounds.

T1 sequence (P05556 21-798, one chain of several): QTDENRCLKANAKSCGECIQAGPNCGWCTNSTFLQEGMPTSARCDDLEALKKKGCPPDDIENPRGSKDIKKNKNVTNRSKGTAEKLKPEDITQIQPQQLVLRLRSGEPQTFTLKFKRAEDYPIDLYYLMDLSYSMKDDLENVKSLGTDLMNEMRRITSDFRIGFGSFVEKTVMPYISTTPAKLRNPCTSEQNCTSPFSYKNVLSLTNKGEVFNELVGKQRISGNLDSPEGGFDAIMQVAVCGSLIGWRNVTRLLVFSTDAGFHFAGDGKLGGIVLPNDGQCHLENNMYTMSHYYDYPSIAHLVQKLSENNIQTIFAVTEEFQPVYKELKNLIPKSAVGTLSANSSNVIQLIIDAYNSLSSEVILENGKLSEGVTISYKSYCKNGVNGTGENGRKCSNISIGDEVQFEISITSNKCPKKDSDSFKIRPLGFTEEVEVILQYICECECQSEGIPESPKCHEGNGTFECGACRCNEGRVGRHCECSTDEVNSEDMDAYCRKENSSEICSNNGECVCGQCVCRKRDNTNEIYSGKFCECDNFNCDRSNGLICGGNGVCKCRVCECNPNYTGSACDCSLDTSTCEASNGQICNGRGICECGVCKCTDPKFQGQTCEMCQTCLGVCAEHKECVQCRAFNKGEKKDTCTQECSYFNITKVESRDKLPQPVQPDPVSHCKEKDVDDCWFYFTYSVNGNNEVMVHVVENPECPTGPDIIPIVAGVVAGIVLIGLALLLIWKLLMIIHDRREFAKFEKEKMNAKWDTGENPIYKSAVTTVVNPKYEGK

For the compound `COc1cnn(C)c(=O)c1-c1ccc(C[C@H](NC(=O)C23CCC(CC2)CN3C(=O)CCc2ccco2)C(=O)O)cc1` [Cpd 115], the results for the IC50 at α4β1 and on human α4β7 integrin were 63.5 nM and 94 nM, respectively.

Take `COc1cnn(C)c(=O)c1-c1ccc(C[C@H](NC(=O)C2(N)CCOCC2)C(=O)O)cc1` [Cpd 116]: the results for the IC50 at α4β1 and on human α4β7 integrin were 656 nM and 97 nM, respectively.

Take `COc1cnn(Cc2ccccc2)c(=O)c1-c1ccc(C[C@H](NC(=O)c2c(Cl)cccc2Cl)C(=O)O)cc1` [Cpd 117]: the half-maximal inhibitory concentration (IC50) – broadly, the concentration needed to halve the response being measured – on α4β1 stood at 518 nM; at human α4β7 integrin it was 102 nM.

Take `COc1cnn(C)c(=O)c1-c1ccc(C[C@H](NC(=O)c2c(Cl)cccc2Cl)C(=O)OCCN2CCOCC2)cc1` [Cpd 118]: the half-maximal inhibitory concentration (IC50) on α4β1 turned out to be 1290 nM; at human α4β7 integrin it was 103 nM.

On to `COc1cnn(C)c(=O)c1-c1ccc(C[C@H](NC(=O)c2c(Cl)cccc2Cl)C(=O)NCCO)cc1` [Cpd 119], for which the IC50 at α4β1 amounted to 3800 nM; on human α4β7 integrin, 105 nM.

As to `CCOC(=O)Cc1cnn(C)c(=O)c1-c1ccc(C[C@H](NC(=O)c2c(Cl)cccc2Cl)C(=O)O)cc1` [Cpd 121, (S)-2-(2,6-dichloro-benzoylamino)-3-[4-(5ethoxycarbonylmethyl-2-methyl-3-oxo-2,3-dihydro-pyridazin-4-yl)-phenyl]-propionic acid], the IC50 on α4β1 was over 5000 nM; at human α4β7 integrin it was 114 nM.

For the compound `COc1cnn(C)c(=O)c1-c1ccc(C[C@H](NC(=O)C23CCC(CC2)CN3C(=O)CCc2cnc[nH]2)C(=O)O)cc1` [Cpd 122], the IC50 came to 142 nM at α4β1 and 118 nM on human α4β7 integrin.

On to `COc1cnn(C)c(=O)c1-c1ccc(C[C@H](NC(=O)CC(C)C)C(=O)O)cc1` [Cpd 124], for which the 50% inhibitory concentration (IC50) at α4β1 was over 1000 nM; on human α4β7 integrin, 119 nM.

As to `COCCC(=O)N1C2CCC(CC2)[C@H]1C(=O)N[C@@H](Cc1ccc(-c2c(OC)cnn(C)c2=O)cc1)C(=O)O` [Cpd 125], the IC50 was found to be 112 nM on α4β1 and 123 nM on human α4β7 integrin.

On to `COc1cnn(C)c(=O)c1-c1ccc(C[C@H](NC(=O)C23CCC(CC2)CN3C(=O)OC(C)(C)C)C(=O)O)cc1` [Cpd 126], for which the 50% inhibitory concentration (IC50) is 2460 nM on α4β1 and 127 nM at human α4β7 integrin.

As to `COc1cnn(C)c(=O)c1-c1ccc(C[C@H](NC(=O)[C@@H](O)C(C)C)C(=O)O)cc1` [Cpd 127], the half-maximal inhibitory concentration (IC50) on α4β1 was over 1000 nM; at human α4β7 integrin it was 133 nM.

For `CN[C@H](C(=O)N[C@@H](Cc1ccc(-c2c(OC)cnn(CCN3CCOCC3)c2=O)cc1)C(=O)O)[C@@H](C)OCc1ccccc1` [Cpd 128], the IC50 on α4β1 was 1490 nM; on human α4β7 integrin, 138 nM.

As for `COc1cnn(C)c(=O)c1-c1ccc(C[C@H](NC(=O)[C@H](O)C(C)C)C(=O)O)cc1` [Cpd 129], the IC50 at α4β1 was over 1000 nM; on human α4β7 integrin, 141 nM.

With `COc1ccc2cc(C(=O)N[C@@H](Cc3ccc(-c4c(OC)cnn(C)c4=O)cc3)C(=O)O)c(=O)oc2c1` [Cpd 130], the half-maximal inhibitory concentration (IC50) at α4β1 was over 1000 nM; on human α4β7 integrin it was 147 nM.

For the compound `O=C(N[C@@H](Cc1ccc(-c2c(-n3nccc3-c3cccs3)cnn(CCO)c2=O)cc1)C(=O)O)c1c(Cl)cccc1Cl` [Cpd 131, (S)-2-(2,6-Dichloro-benzoylamino)-3-{4-[2-(2-hydroxy-ethyl)-3-oxo-5-(5-thiophen-2-yl-pyrazol-1-yl)-2,3-di hydro-pyridazin-4-yl]-phenyl}-propionic acid], the half-inhibitory concentration (IC50) at α4β1 was over 5000 nM; at human α4β7 integrin it was 152 nM.

For the compound `COc1cnn(C)c(=O)c1-c1ccc(C[C@H](NC(=O)C2(c3ccc(F)cc3)CCCC2)C(=O)O)cc1` [Cpd 132], the IC50 at α4β1 is over 5000 nM; on human α4β7 integrin, 152 nM.

Consider `COc1cnn(C)c(=O)c1-c1ccc(CC(NC(=O)C2(C(=O)NC(Cc3ccc(-c4c(OC)cnn(C)c4=O)cc3)C(=O)O)CC2)C(=O)O)cc1` (stereo not drawn) [Cpd 133], for which the IC50 at α4β1 came to 1280 nM; at human α4β7 integrin, 10 nM.

For the compound `COc1cnn(C)c(=O)c1-c1ccc(C[C@H](NC(=O)C23CCC(CC2)CN3C)C(=O)O)cc1` [Cpd 135], the values for the IC50 on α4β1 and at human α4β7 integrin were over 1000 nM and 165 nM, respectively.

For `COc1cnn(C)c(=O)c1-c1ccc(C[C@H](NC(=O)C2C(C)(C)C2(C)C)C(=O)O)cc1` [Cpd 136, (S)-3-[4-(5-Methoxy-2-methyl-3-oxo-2,3-dihydro-pyridazin-4-yl)-phenyl]-2-[(2,2,3,3-tetramethyl-cyclopropanecarbonyl)-amino]-propionic acid], the figures for the half-inhibitory concentration (IC50) on α4β1 and on human α4β7 integrin were 1160 nM and 179 nM, respectively.

For the compound `COc1cnn(C)c(=O)c1-c1ccc(C[C@H](NC(=O)c2ccc(C(=O)O)cc2)C(=O)O)cc1` [Cpd 137], the values for the IC50 on α4β1 and at human α4β7 integrin were 962 nM and 200 nM, respectively.

`COc1cnn(C)c(=O)c1-c1ccc(C[C@H](NC(=O)c2c(C)cc(C)nc2N)C(=O)O)cc1` [Cpd 138]: the figures for the IC50 at α4β1 and on human α4β7 integrin were 508 nM and 204 nM, respectively.

On to `COc1cnn(C)c(=O)c1-c1ccc(C[C@H](NC(=O)C23CCC(CC2)CN3C(=O)CCC2CCNCC2)C(=O)O)cc1` [Cpd 139], for which the IC50 on α4β1 came to 319 nM; on human α4β7 integrin, 228 nM.

`CCOc1cnn(C(C)(C)C)c(=O)c1-c1ccc(C[C@H](NC(=O)c2c(Cl)cccc2Cl)C(=O)O)cc1` [Cpd 142]: the IC50 at α4β1 was over 1000 nM; on human α4β7 integrin, 230 nM.

Turning to `COc1cnn(C)c(=O)c1-c1ccc(C[C@H](NC(=O)C(=O)C(C)C)C(=O)O)cc1` [Cpd 143], the IC50 at α4β1 was over 1000 nM; on human α4β7 integrin it was 244 nM.

`COc1cnn(C)c(=O)c1-c1ccc(C[C@H](NC(=O)c2cnoc2C)C(=O)O)cc1` [Cpd 147]: the figures for the half-inhibitory concentration (IC50) at α4β1 and on human α4β7 integrin were over 5000 nM and 249 nM, respectively.

Consider `Cn1ncc(-n2nccc2-c2cccs2)c(-c2ccc(C[C@H](NC(=O)c3c(Cl)cccc3Cl)C(=O)O)cc2)c1=O` [Cpd 148], for which the 50% inhibitory concentration (IC50) at α4β1 is over 5000 nM; on human α4β7 integrin it was 261 nM.

As to `CN(C)CCOc1cnn(C)c(=O)c1-c1ccc(C[C@H](NC(=O)c2c(Cl)cccc2Cl)C(=O)O)cc1` [Cpd 150], the results for the IC50 at α4β1 and on human α4β7 integrin were 154 nM and 271 nM, respectively.

For `Cn1ncc(CC(=O)O)c(-c2ccc(C[C@H](NC(=O)c3c(Cl)cccc3Cl)C(=O)O)cc2)c1=O` [Cpd 152], the IC50 is over 5000 nM on α4β1 and 282 nM on human α4β7 integrin.

For the compound `COc1cnn(C)c(=O)c1-c1ccc(CC(NC(=O)C(NC(C)C)C(C)C)C(=O)O)cc1` (stereo not drawn) [Cpd 153, 2-(2-Isopropylamino-3-methyl-butyrylamino)-3-[4-(5-methoxy-2-methyl-3-oxo-2,3-dihydro-pyridazin-4-yl)-phenyl]-propionic acid], the IC50 at α4β1 is 2050 nM; on human α4β7 integrin, 295 nM.

With `COc1cnn(CCN2CCOCC2)c(=O)c1-c1ccc(C[C@H](NC(=O)[C@@H](NC(=O)OC(C)(C)C)[C@@H](C)O)C(=O)O)cc1` [Cpd 154], the results for the 50% inhibitory concentration (IC50) on α4β1 and at human α4β7 integrin were over 5000 nM and 330 nM, respectively.

The record behind these values is patent US20050192279A1, “Pyridazinones as antagonists of alpha4 integrins” (priority 2004, published 2005).
